Measurements published in ChEMBL document CHEMBL1201862, “PubChem BioAssay data set” (2004).
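Dose response: 5 concentrations. Exposure: 48 h. Format: 96-well plates. Endpoint: linear interpolation; highest concentration if not reached. At the GI50, growth is halved.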 Calls of active or inactive are those of the source. Rule as the data show it: active = GI50 up to about 1.1 µM and inactive = higher.

How the values were obtained:
Assay in all cases: growth of human tumour cells (NCI), 48 h
[1] = test system: PC-3
[2] = test system: HL-60
[3] = test system: KM12
[4] = test system: Malme-3M
[5] = test system: UACC-257
[6] = test system: SK-MEL-5
[7] = test system: HCC 2998
[8] = test system: HT-29
[9] = test system: MOLT-4
[10] = test system: NCI-H460
[11] = test system: T47D
[12] = test system: HCT-15
[13] = test system: UACC-62
[14] = test system: NCI/ADR-RES
[15] = test system: HCT-116
[16] = test system: MCF7
[17] = test system: COLO 205
[18] = test system: SF-295
[19] = test system: DU-145
[20] = test system: OVCAR-4

Row | Compound | GI50 [1] | GI50 [2] | GI50 [3] | GI50 [4] | GI50 [5] | GI50 [6] | GI50 [7] | GI50 [8] | GI50 [9] | GI50 [10] | GI50 [11] | GI50 [12] [µM] | GI50 [13] | GI50 [14] | GI50 [15] | GI50 [16] | GI50 [17] | GI50 [18] | GI50 [19] | GI50 [20]
1 | O=C(c1cc2c(c3ccccc13)NC1(CCCCC1)N=C2C(F)(F)F)C(F)(F)F | 3.68 µM (inactive) | 2.9 µM (inactive) | 3.42 µM (inactive) | 5.27 µM (inactive) | 3.17 µM (inactive) | 5.74 µM (inactive) | 2.29 µM (inactive) | 3.66 µM (inactive) | 3.29 µM (inactive) | 3.27 µM (inactive) | 2.93 µM (inactive) | 5.07 | 3.78 µM (inactive) | 4.53 µM (inactive) | 3.3 µM (inactive) | 3.63 µM (inactive) | 5.57 µM (inactive) | 3.2 µM (inactive) | 5.35 µM (inactive) | 3.73 µM (inactive)
2 | FC(F)(F)c1ccc2nc3n(c2c1)C(c1c(Cl)cccc1Cl)SC3 (stereo not drawn) | 14.9 µM (inactive) | 2.47 µM (inactive) | 14.6 µM (inactive) | 13.3 µM (inactive) | 14.1 µM (inactive) |  | 18.5 µM (inactive) | 15.4 µM (inactive) | 9.48 µM (inactive) | 14.5 µM (inactive) | 11.2 µM (inactive) | 14.2 | 14.5 µM (inactive) | 11.3 µM (inactive) | 10.5 µM (inactive) | 16.1 µM (inactive) |  | 16.4 µM (inactive) | 17 µM (inactive) | 15.8 µM (inactive)
3 | CC(C)c1cc(C(C)C)c(B(c2ccccc2)c2ccccc2)c(C(C)C)c1Br | > 100 µM (inactive) | > 100 µM (inactive) | > 100 µM (inactive) | > 100 µM (inactive) | > 100 µM (inactive) | > 100 µM (inactive) | > 100 µM (inactive) | > 100 µM (inactive) | > 100 µM (inactive) | > 100 µM (inactive) | > 100 µM (inactive) | > 100 | > 100 µM (inactive) | > 100 µM (inactive) | > 100 µM (inactive) | > 100 µM (inactive) | > 100 µM (inactive) | > 100 µM (inactive) | > 100 µM (inactive) | > 100 µM (inactive)
4 | O=C(O)c1ccc2c(c1)CC1(C2)Cc2ccccc2C1=O (stereo not drawn) | > 100 µM (inactive) | > 100 µM (inactive) | > 100 µM (inactive) | > 100 µM (inactive) | > 100 µM (inactive) | > 100 µM (inactive) | > 100 µM (inactive) | > 100 µM (inactive) | > 100 µM (inactive) | > 100 µM (inactive) | > 100 µM (inactive) | > 100 | > 100 µM (inactive) | > 100 µM (inactive) | > 100 µM (inactive) | > 100 µM (inactive) | > 100 µM (inactive) | > 100 µM (inactive) | > 100 µM (inactive) | > 100 µM (inactive)
5 | CN(CCNC(=O)c1n[nH]c2c1ccc1ccccc12)CCNC(=O)c1n[nH]c2c1ccc1ccccc12 | 2.49 µM (inactive) | 2.75 µM (inactive) | 2.14 µM (inactive) | 1.9 µM (inactive) | 24.4 µM (inactive) | 1.71 µM (inactive) | 1.91 µM (inactive) | 2.01 µM (inactive) | 2.77 µM (inactive) | 2.3 µM (inactive) | 2.42 µM (inactive) | 13.7 | 1.92 µM (inactive) | > 100 µM (inactive) | 2.13 µM (inactive) | 1.87 µM (inactive) | 1.39 µM (inactive) | 1.81 µM (inactive) | 2.49 µM (inactive) | 1.82 µM (inactive)
6 | CC(C)OCC(O)COc1cc(=O)oc2ccccc12 (stereo not drawn) | > 100 µM (inactive) | > 100 µM (inactive) | > 100 µM (inactive) | > 100 µM (inactive) | > 100 µM (inactive) | > 100 µM (inactive) | 50.4 µM (inactive) | > 100 µM (inactive) | > 100 µM (inactive) | > 100 µM (inactive) | > 100 µM (inactive) | > 100 | > 100 µM (inactive) | > 100 µM (inactive) | > 100 µM (inactive) | > 100 µM (inactive) | > 100 µM (inactive) | > 100 µM (inactive) | > 100 µM (inactive) | > 100 µM (inactive)
7 | N#Cc1c(-c2ccc(Cl)cc2)c2c(n(C3OC(CO)C(O)C(O)C3O)c1=S)CCC2 (stereo not drawn) | 28.4 µM (inactive) | > 100 µM (inactive) | 41.9 µM (inactive) | 26.2 µM (inactive) | 33.4 µM (inactive) | 13.3 µM (inactive) | 19.8 µM (inactive) | 29 µM (inactive) | 10.4 µM (inactive) | 33 µM (inactive) | 20.5 µM (inactive) | 36.6 | 17.1 µM (inactive) | 61.2 µM (inactive) | 34.4 µM (inactive) | 20.9 µM (inactive) | 29.6 µM (inactive) | > 10 µM (inactive) | 42.4 µM (inactive) | 34 µM (inactive)
